Experimental data published in US12473377B2, “Antibody-ALK5 inhibitor conjugates and their uses” (Synthis Therapeutics, Inc., priority 2016, dated 2025).
Where two headings read alike, the source gives them in different places.

Columns and labels:
[1] = test system: TGF-β-induced luciferase activity in HEK293T cells; assay: TGF-β-induced SMAD luciferase reporter assay in HEK293T cells; assay type: cell-based; conditions: Homo sapiens, HEK-293T, 24 hours
Method: Compounds A-D were tested to determine whether they could inhibit TGF-β-induced luciferase activity in HEK293T cells in vitro.
30,000 HEK293T cells were seeded in a 96 well white flat bottom plate overnight. The next day 100 ng of a SMAD luciferase reporter plasmid per well was transfected into the cells using lipofectamine for 24 hours. The next day cells were treated with Compounds A-D and […] TGFβ for 24 hours. Luciferase activity was measured using the Dual-Glo® luciferase assay kit (Promega). The assay was run twice for Compounds A, B, and D, and three times for Compound C.

[2] = test system: primary mouse CD4^+ T cells; assay: MTS proliferation assay; assay type: cell-based; conditions: for IC50: Mus musculus, CD4+ T; for reversal of TGFβ-mediated inhibition of T cell proliferation (in words): mouse CD4^+ T cells, 1 nM TGF-β1
Method: Compounds A-D were tested to determine whether they could inhibit TGF-β signaling in primary mouse CD4^+ T cells.
Primary mouse CD4^+ T cells were isolated from the spleens of C57/B6 mice using the RoboSep™ cell isolation system (Stemcell Technologies). 0.5 μg/ml of hamster anti-mouse CD3e antibody (145-2C11; eBioscience) was coated onto a 96 well flat bottom plate overnight. 1×10^5 purified CD4^+ T cells were incubated with 1 μg/ml soluble hamster anti-mouse CD28 antibody (37.51, BD Biosciences), 1 nM TGF-β1 and 8-fold serial dilutions of Compounds A-D. After 72 hours, cell proliferation was measured using an MTS assay (Promega) in accordance with the manufacturer's instructions.

[3] = test system: Naïve CD4 T cells (iTreg FoxP3 expression); assay: iTreg conversion assay; assay type: cell-based, mouse
Method: Naïve CD4 T cells were isolated from isolated mouse spleenocytes using a negative selection kit. The cell density was adjusted to 0.4×10^6 cells/ml, and 10 ng/ml of mouse IL-2, 20 ng/ml of TGF-β, and 1 μg/ml of soluble anti-CD28 was added to the cell suspension.
Anti-mouse CD3 antibody at 10 μg/ml was coated on a 24 well plate and incubated at 4° C. overnight. The antibody was then aspirated from the plate. 1 ml of the cell suspension was added to each well of the 24 well plate. ADC1 (DAR 4-6) at 3 μg/ml and 5 μg/ml, anti-transferrin receptor antibody, rat anti-mouse IgG2A isotype control ALK5 ADC, and ALK5 inhibitor Compound C at 100 nM and 1 μM were added to separate wells of the 24 well plate. The cells were then cultured for 72 hours. TfR expression was tested at 48 hours (data not shown). Cells were stained for FoxP3 (eBioscience FoxP3 staining buffer) and sorted by FACS at 72 hours.

[4] = test system: Mouse CTLL2 cells; assay: CTLL2 proliferation assay (BrdU ELISA); assay type: cell-based
Method: Mouse CTLL2 cells were cultured at 1×10^5 cells/well in 0.2 ng/ml IL2. To each well as indicated 1 nM TGF-β, 1 μg/ml ADC, and/or 100 nM ALK5 inhibitor Compound C was added to the wells for 24 hours. Proliferation was quantitated via addition of the BrdU reagent (Abcam) to each well for another 12 hours and then analyzed by ELISA.

[5] = test system: GzmB expression in primary CD8^+ T cells; assay: Granzyme B expression assay; assay type: cell-based, mouse; conditions: 1 nM TGF-β, ADC1 at DARs 2-4, 4-6 and 6-8, flow cytometry
Method: Mouse CD3^+ T cells were purified from mouse spleens using the EasySep™ Mouse T cell isolation kit (negative selection) (Stemcell Technologies). CD3^+ T cells were activated as before using plate bound antiCD3e and soluble anti-CD28 for 48 hours. T cells were washed and re-plated in media with 5% serum plus 1 nM TGF-β−/+ADC.
Golgi stop reagent was added for the last 4 hours and then the cells were immunostained for surface CD8 (BD) and intracellular GzmB (eBioscience) and analyzed via flow cytometry. Granzyme B (GzmB) is a serine protease released by CD8^+ T cells to kill tumor cells. Thus, increased expression of GzmB is indicative of CD8^+ cytotoxic T cell activation.

[6] = Experiment 1, 100 μM TGFβ, read-out: Experiment 1 IC50
[7] = Experiment 2, 100 μM TGFβ, read-out: Experiment 2 IC50
[8] = Experiment 1, anti-CD3e/anti-CD28, 1 nM TGF-β1, 72 hours
[9] = Experiment 2, anti-CD3e/anti-CD28, 1 nM TGF-β1, 72 hours, read-out: Experiment 2 IC50
[10] = Experiment 1, anti-CD3e/anti-CD28, 1 nM TGF-β1, 72 hours, read-out: Experiment 1 IC50

Compound	IC50 [1, 6] [nM]	IC50 [1, 7] [nM]	Experiment 1 IC50 [2, 8]	IC50 [2, 9] [nM]	reversal of TGFβ-mediated inhibition of T cell proliferation (in words) [2]	IC50 [2, 10] [nM]	IC50 ([1]; Experiment 3, 100 μM TGFβ, read-out: Experiment 3 IC50) [nM]	amount of iTreg generated ([3]; 100 nM free ALK5 inhibitor, 20 ng/ml TGF-β, 72 hours)	iTreg generation ([3]; 100 nM of free ALK5 inhibitor (FIG. 12 legend))	restoration of CTLL2 proliferation in presence of TGF-β ([4]; 100 nM ALK5 inhibitor Compound C, 1 nM TGF-β, 24 hours)	restoration of GzmB expression ([5]; listed as ALK5 compound)	restoration of GzmB expression ([5]; listed as free ALK5 inhibitor)	Experiment 2 IC50 ([2]; Experiment 2, anti-CD3e/anti-CD28, 1 nM TGF-β1, 72 hours)	inhibition of CTLL2 proliferation ([4]; 1 nM TGF-β alone)
Cc1cccc(-c2nc(N)sc2-c2ccc3ncccc3n2)n1 [Compound A, 4-(6-methylpyridin-2-yl)-5-(1,5-naphthyridin-2-yl)thiazol-2-amine]	18.7	29.8	Value not obtained	153	did not show consistent effects									
CNCCOc1ccc(-c2cc(-c3c[nH]nc3-c3ccccn3)ccn2)cc1 [Compound B, N-methyl-2-(4-(4-(3-(pyridin-2-yl)-1H-pyrazol-4-yl)pyridin-2-yl)phenoxy)ethan-1-amine]	51.8	11.3		34	reversed TGFβ-mediated inhibition of T cell proliferation	60								
CNCCOc1ccc(-c2cc(-c3c[nH]nc3-c3cccc(C)n3)ccn2)cc1 [Compound C, N-methyl-2-(4-(4-(3-(6-methylpyridin-2-yl)-1H-pyrazol-4-yl)pyridin-2-yl)phenoxy)ethan-1-amine]	10.1	21.2		33	reversed TGFβ-mediated inhibition of T cell proliferation	20	13.2	modestly decreased the amount of iTreg generated	decreases iTreg generation	almost complete reversal of TGF-β inhibition and restoration of CTLL2 proliferation	restore GzmB expression	partially restores Granzyme B expression		
CCNC(=O)c1ccc2c(c1)NC(=O)/C2=C(\Nc1ccc(N(CCNC)S(C)(=O)=O)cc1)c1ccccc1 [Compound D, (Z)-N-ethyl-3-(((4-(N-(2-(methylamino)ethyl)methylsulfonamido)phenyl)amino)(phenyl)methylene)-2-oxoindoline-6-carboxamide]	1070	1520	Value not obtained		an IC50 value was not obtained								Value not obtained	
TGF-β														approximately 60%
